A short description of data set [1]: Competitive equilibration experiments.
Protocol: Relative stability of the anhydrate Forms A, C, H and J was investigated with competitive equilibration experiments.
Relative stability of the anhydrates Forms C, K and L was investigated with competitive equilibration experiments.
Relative stability of the anhydrates Form C and Form P was systematically investigated with competitive equilibration experiments.
About 5 mg of Form C and about 5 mg of Form P were added to 0.25 mL of saturated solutions of selected solvents. Obtained suspensions were stirred at 25° C., 50° C. and 70° C. for 4 days, respectively. Solid parts (wet cakes) were isolated by centrifugation filtration and investigated by XRPD.
About 10 mg of Form C and about 10 mg of Form P were added to 0.5 mL saturated solutions of selected solvents. Obtained suspensions were stirred at 80/C and 90 C, respectively. Solid parts (wet cakes) were be isolated by centrifugation filtration and investigated by XRPD.
About 3 mg of the Form P and 3 mg of the mixture of Form P and Form J were added to 0.2 mL of saturated solutions of selected solvents. Obtained suspensions were stirred at 25° C., 50° C. and 70° C. for 4 days, respectively. Solid parts (wet cakes) were isolated by centrifugation filtration and investigated by XRPD.
About 3 mg of Form P and 3 mg of the physical mixture of Form P and Form R were added to 0.2 mL of saturated solutions of 2-MeTHF. Obtained suspensions were stirred at 25° C., 50° C. and 70° C., respectively. Solid parts (wet cakes) were isolated by centrifugation filtration and investigated by XRPD.
About 1.5 mg of Form P, 1.5 mg of Form X and 1.5 mg Form Y were added to 0.15 mL saturated solution of 2-MeTHF. Obtained suspensions were stirred at 25° C., 50° C. and 70° C., respectively. Solid parts (wet cake) were isolated by centrifugation filtration and investigated by XRPD.
Data set [2] in a line: Form change on heating, dehydration or desolvation (TGA, DSC, variable temperature XRPD). Format: physicochemical. The conditions noted are these: variable temperature XRPD. The method, then: Relative stability of the anhydrates Form R and Form P was investigated by variable temperature XRPD and competitive equilibration experiments.
Relative stability of the anhydrates Form B, Form X, Form Y and Form C was investigated by variable temperature XRPD. Form B converted to Form X, Form Y and Form C after heating to 150° C., 176° C. and 180° C., respectively.

Experiment in data set [3]: as above
It is filed as physicochemical.

Data set [4] is described as follows: Competitive water activity experiments. The conditions noted are these: whole range of water activity (0≤a.w.≤1).
Data set [5] is described as follows: Equilibration with solvents. Format: physicochemical. On the procedure:
Obtained suspensions were filtered through a 0.45 μm nylon membrane filter by centrifugation at 14,000 rpm. Solid parts (wet cakes) were investigated by XRPD. For samples with different XRPD patterns, additional analysis including DSC, TGA, ^1H-NMR were performed.
(§1) Obtained suspensions were filtered through a 0.45 μm nylon membrane filter by centrifugation at 14,000 rpm.
as §1

Like-named read-outs stand apart in the source and are kept apart here.

For the compound `Cc1nc(-c2c[nH]c3c(C#N)cccc23)cnc1OCC(C)(C)O` [Form A, 3-(5-(2-hydroxy-2-methylpropoxy)-6-methylpyrazin-2-yl)-1H-indole-7-carbonitrile], the “Form conversion (relative stability)” value in data set [1] (at both 25° C. and 50° C.) is recorded as “converts to Form C”.

Turning to `Cc1nc(-c2c[nH]c3c(C#N)cccc23)cnc1OCC(C)(C)O` [Form B, 3-(5-(2-hydroxy-2-methylpropoxy)-6-methylpyrazin-2-yl)-1H-indole-7-carbonitrile], the Form after heating result in data set [2] (heating to 150° C.) was “Form X”; in data set [2] (heating to 176° C.), “Form Y”; in data set [2] (heating to 180° C.), “Form C”. Moreover, the Form after dehydration entry in data set [3] is listed as “converts to Form K”. Further, the “Relative stability in water activity experiments” value in data set [4] is given as “converts to anhydrate Form C”.

On to `Cc1nc(-c2c[nH]c3c(C#N)cccc23)cnc1OCC(C)(C)O` [Form C and Form P, 3-(5-(2-hydroxy-2-methylpropoxy)-6-methylpyrazin-2-yl)-1H-indole-7-carbonitrile], for which the “XRPD after competitive equilibration” value in data set [1] (1,4-Dioxane, 25° C. for 4 days) is “Form D”; in data set [1] (1,4-Dioxane, 50° C. for 4 days), “Form D”; in data set [1] (1,4-Dioxane, 70° C. for 4 days) it was “Form D”; in data set [1] (2-MeTHF, 25° C. for 4 days), “Form P”; in data set [1] (2-MeTHF, 50° C. for 4 days), “Form P”; in data set [1] (2-MeTHF, 70° C. for 4 days), “Form P”. Moreover, the “XRPD after competitive equilibration” value in data set [1] (Acetone, 25° C. for 4 days) was “Form P”; in data set [1] (Acetone, 50° C. for 4 days), “Form P”; in data set [1] (Acetone, 70° C. for 4 days) it was “Form P”; in data set [1] (Acetone/water (v:v = 36:64) a.w = 0.9, 25° C. for 4 days) it was “Form P”; in data set [1] (Acetone/water (v:v = 36:64) a.w = 0.9, 50° C. for 4 days), “Form P”; in data set [1] (Acetone/water (v:v = 36:64) a.w = 0.9, 70° C. for 4 days) it was “Form P”. For the same compound, the “XRPD after competitive equilibration” value is listed as “Form P” in data set [1] (Acetone/water (v:v = 76.5:23.5) a.w = 0.7, 25° C. for 4 days); “Form P” in data set [1] (Acetone/water (v:v = 76.5:23.5) a.w = 0.7, 50° C. for 4 days); “Form P” in data set [1] (Acetone/water (v:v = 76.5:23.5) a.w = 0.7, 70° C. for 4 days); “Form P” in data set [1] (Acetone/water (v:v = 95.2:4.8) a.w = 0.4, 25° C. for 4 days); “Form P” in data set [1] (Acetone/water (v:v = 95.2:4.8) a.w = 0.4, 50° C. for 4 days); “Form P” in data set [1] (Acetone/water (v:v = 95.2:4.8) a.w = 0.4, 70° C. for 4 days). In addition, the “XRPD after competitive equilibration” value in data set [1] (Acetonitrile, 25° C. for 4 days) is given as “Form P”; in data set [1] (Acetonitrile, 50° C. for 4 days), “Form P”; in data set [1] (Acetonitrile, 70° C. for 4 days), “Form P”; in data set [1] (DCM, 25° C. for 4 days) it was “Form P”; in data set [1] (DMSO/water (v:v = 1:5 a.w. = 0.94), 80° C. for about 6 d), “Form P”; in data set [1] (DMSO/water (v:v = 1:5 a.w. = 0.94), 90° C. for about 8 d), “Form C (majority) +”. The “XRPD after competitive equilibration” value was “Form C” in data set [1] (DMSO/water (v:v = 1:5 a.w. = 0.94), 90° C. for about 18 d); “Form P” in data set [1] (Ethanol, 25° C. for 4 days); “Form P” in data set [1] (Ethanol, 50° C. for 4 days); “Form P” in data set [1] (Ethanol, 70° C. for 4 days); “Form P” in data set [1] (Ethyl acetate, 25° C. for 4 days); “Form P” in data set [1] (Ethyl acetate, 50° C. for 4 days). Besides, the “XRPD after competitive equilibration” value in data set [1] (Ethyl acetate, 70° C. for 4 days) is recorded as “Form P”; in data set [1] (Heptane, 25° C. for 4 days), “Form P”; in data set [1] (Heptane, 50° C. for 4 days), “Form P”; in data set [1] (Heptane, 70° C. for 4 days), “Form P”; in data set [1] (Heptane, 90° C. for about 8 d) it was “Form C + Form P”; in data set [1] (Heptane, 90° C. for about 18 d), “Form C + Form P”. Further, the “XRPD after competitive equilibration” value was “Form P” in data set [1] (Isopropyl acetate, 25° C. for 4 days); “Form P” in data set [1] (Isopropyl acetate, 50° C. for 4 days); “Form P” in data set [1] (Isopropyl acetate, 70° C. for 4 days); “Form P” in data set [1] (MEK, 25° C. for 4 days); “Form P” in data set [1] (MEK, 50° C. for 4 days); “Form P” in data set [1] (MEK, 70° C. for 4 days). Moreover, the “XRPD after competitive equilibration” value in data set [1] (NMP, 25° C. for 4 days) was “Form Q, NMP”; in data set [1] (THF, 25° C. for 4 days), “Form P”; in data set [1] (THF, 50° C. for 4 days), “Form P”; in data set [1] (Toluene, 90° C. for about 8 d) it was “Form C”; in data set [1] (Water, 25° C. for 4 days), “Form P”; in data set [1] (Water, 50° C. for 4 days), “Form P”. The “XRPD after competitive equilibration” value was “Form P” in data set [1] (Water, 70° C. for 4 days); “Form C + Form P” in data set [1] (Water, 90° C. for about 8 d); “Form P” in data set [1] (Water, 90° C. for about 18 d).

As to `Cc1nc(-c2c[nH]c3c(C#N)cccc23)cnc1OCC(C)(C)O` [Form D, 3-(5-(2-hydroxy-2-methylpropoxy)-6-methylpyrazin-2-yl)-1H-indole-7-carbonitrile], the Form after desolvation result in data set [3] is “converts to Form C”.

In the case of `Cc1nc(-c2c[nH]c3c(C#N)cccc23)cnc1OCC(C)(C)O` [Form E, 3-(5-(2-hydroxy-2-methylpropoxy)-6-methylpyrazin-2-yl)-1H-indole-7-carbonitrile], the Form after heating entry in data set [3] (heating to 100° C. by TGA and cooled to room temperature) is “converts to physical mixture of Form F and Form G”.

For `Cc1nc(-c2c[nH]c3c(C#N)cccc23)cnc1OCC(C)(C)O` [Form G, 3-(5-(2-hydroxy-2-methylpropoxy)-6-methylpyrazin-2-yl)-1H-indole-7-carbonitrile], the Form after equilibration entry in data set [5] (DMSO/water system at 25° C. for 6 days) is listed as “converts to anhydrate Form H”.

Regarding `Cc1nc(-c2c[nH]c3c(C#N)cccc23)cnc1OCC(C)(C)O` [Form I, 3-(5-(2-hydroxy-2-methylpropoxy)-6-methylpyrazin-2-yl)-1H-indole-7-carbonitrile], the Form after heating entry in data set [3] (heating to 140° C. by TGA and cooled to room temperature) is “converted to physical mixture of Form C, Form N and an unknown peak”.

On to `Cc1nc(-c2c[nH]c3c(C#N)cccc23)cnc1OCC(C)(C)O` [Form M, 3-(5-(2-hydroxy-2-methylpropoxy)-6-methylpyrazin-2-yl)-1H-indole-7-carbonitrile], for which the Form after equilibration entry in data set [5] (MeOH at 25° C. for another 1 day) is recorded as “converts to Form B”.

With `Cc1nc(-c2c[nH]c3c(C#N)cccc23)cnc1OCC(C)(C)O` [Form N, 3-(5-(2-hydroxy-2-methylpropoxy)-6-methylpyrazin-2-yl)-1H-indole-7-carbonitrile], in data set [4], the “Relative stability in water activity experiments” value is “converts to Form C”.

Take `Cc1nc(-c2c[nH]c3c(C#N)cccc23)cnc1OCC(C)(C)O` [Form P + Form X + Form Y, 3-(5-(2-hydroxy-2-methylpropoxy)-6-methylpyrazin-2-yl)-1H-indole-7-carbonitrile]: the “XRPD after competitive equilibration” value is “Form P” in data set [1] (2-MeTHF, 25° C. for about 3 days); “Form P” in data set [1] (2-MeTHF, 50° C. for about 3 days); “Form P” in data set [1] (2-MeTHF, 70° C. for about 3 days).

For `Cc1nc(-c2c[nH]c3c(C#N)cccc23)cnc1OCC(C)(C)O` [Form Q, 3-(5-(2-hydroxy-2-methylpropoxy)-6-methylpyrazin-2-yl)-1H-indole-7-carbonitrile], the Form after desolvation result in data set [3] (desolvation by heating to 150° C.) was “converted to a physical mixture of Form C (majority) and Form Q”.

Regarding `Cc1nc(-c2c[nH]c3c(C#N)cccc23)cnc1OCC(C)(C)O` [Form R, 3-(5-(2-hydroxy-2-methylpropoxy)-6-methylpyrazin-2-yl)-1H-indole-7-carbonitrile], the “Form conversion (relative stability)” value in data set [1] (at both 25° C. and 70° C.) is reported as “converts to Form P”.

On to `Cc1nc(-c2c[nH]c3c(C#N)cccc23)cnc1OCC(C)(C)O` [Form S, 3-(5-(2-hydroxy-2-methylpropoxy)-6-methylpyrazin-2-yl)-1H-indole-7-carbonitrile], for which, in data set [4], the “Relative stability in water activity experiments” value was “converted to anhydrate Form P”.

Take `Cc1nc(-c2c[nH]c3c(C#N)cccc23)cnc1OCC(C)(C)O` [Form U, 3-(5-(2-hydroxy-2-methylpropoxy)-6-methylpyrazin-2-yl)-1H-indole-7-carbonitrile]: the Form after desolvation entry in data set [3] is listed as “converted to Form C”.

With `Cc1nc(-c2c[nH]c3c(C#N)cccc23)cnc1OCC(C)(C)O` [Form X, 3-(5-(2-hydroxy-2-methylpropoxy)-6-methylpyrazin-2-yl)-1H-indole-7-carbonitrile], the “Form conversion (relative stability)” value in data set [1] (at 25° C., 50° C. and 70° C.) is “converts to Form P”.

Values taken from US20250263396A1, “CRYSTALLINE FORMS OF 3-(5-(2-HYDROXY-2- METHYLPROPOXY)-6-METHYPYRAZIN-2-YL)-1H-INDOLE-7-CARBONITRILE” (NIDO BIOSCIENCES, INC., priority 2024, published 2025).
